Test results as given in patent US10131652B2, “Pyrimidinyloxy benzene derivatives as herbicides” (E. I. DU PONT DE NEMOURS AND COMPANY, priority 2014, dated 2018).

How the values were obtained:
Type in all cases: in vivo
[1] = tested on: Italian ryegrass (Lolium multiflorum); assay: Test B pre-/postemergence plant response
Outline: (§1)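 Seeds in loam–sand blend given preemergence soil spray; separately, plants at one- to two-leaf stage (2–10 cm) sprayed postemergence, compounds in non-phytotoxic solvent with surfactant. Injury rated visually versus untreated controls after ~10 days in greenhouse, 0 (no effect) to 100 (complete control).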

kochia (Kochia scoparia) = assay: Test B pre-/postemergence plant response
Outline: as §1

[2] = tested on: ragweed (common ragweed, Ambrosia elatior); assay: Test B pre-/postemergence plant response
Outline: as §1

[3] = tested on: Italian ryegrass (Lolium multiflorum); assay: Test D pre-/postemergence plant response; details: Postemergence
Outline: (§2)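 Greenhouse herbicidal response, both pre- and postemergence applications, with solvent/surfactant formulation. Postemergence plants were at 1- to 4-leaf stage. Visual scores 0–100 relative to controls, taken 13 to 15 days later.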

[4] = tested on: barnyardgrass (Echinochloa crus-galli); assay: Test D pre-/postemergence plant response; details: Postemergence; for Plant response rating, Barnyardgrass: scale 0 to 100, 0 no effect, 100 complete control
Outline: as §2

[5] = tested on: blackgrass (Alopecurus myosuroides); assay: Test D pre-/postemergence plant response; details: Postemergence; for Plant response rating, Blackgrass: scale 0 to 100, 0 no effect, 100 complete control
Outline: as §2

corn (Zea mays) = assay: Test D pre-/postemergence plant response; details: Postemergence; for Plant response rating, Corn: scale 0 to 100, 0 no effect, 100 complete control
Outline: as §2

[6] = tested on: giant foxtail (Setaria faberii); assay: Test D pre-/postemergence plant response; details: Postemergence; for Plant response rating, Foxtail, Giant: scale 0 to 100, 0 no effect, 100 complete control
Outline: as §2

[7] = tested on: lambsquarters (Chenopodium album); assay: Test D pre-/postemergence plant response; details: Postemergence
Outline: as §2

[8] = tested on: large (Lg) crabgrass (Digitaria sanguinalis); assay: Test D pre-/postemergence plant response; details: Postemergence; for Plant response rating, Crabgrass, Large: scale 0 to 100, 0 no effect, 100 complete control
Outline: as §2

[9] = tested on: morningglory (Ipomoea coccinea); assay: Test D pre-/postemergence plant response; details: Postemergence
Outline: as §2

[10] = tested on: pigweed (Amaranthus retroflexus); assay: Test D pre-/postemergence plant response; details: Postemergence
Outline: as §2

soybean (Glycine max) = assay: Test D pre-/postemergence plant response; details: Postemergence
Outline: as §2

[11] = tested on: velvetleaf (Abutilon theophrasti); assay: Test D pre-/postemergence plant response; details: Postemergence
Outline: as §2

[12] = tested on: waterhemp (common waterhemp, Amaranthus rudis); assay: Test D pre-/postemergence plant response; details: Postemergence
Outline: as §2

[13] = 31 g ai/ha, Preemergence, 0 to 100 scale where 0 is no effect and 100 is complete control
[14] = 125 g ai/ha, postemergence, 0 to 100 scale, 0 no effect, 100 complete control
[15] = Postemergence, 31 g ai/ha, 0 to 100 scale (0 no effect, 100 complete control)
[16] = Preemergence, 125 g ai/ha, 0 to 100 scale (0 no effect, 100 complete control)
[17] = 31 g ai/ha, scale 0 to 100 (0 no effect, 100 complete control)
[18] = 62 g ai/ha, scale 0 to 100, 0 no effect, 100 complete control
[19] = 125 g ai/ha, scale 0 to 100, 0 no effect, 100 complete control

Question: `FC(F)c1cc(-c2ccccc2Oc2ncc(Br)cn2)on1` [Compound 212] was tested. Which “Plant response rating, Ryegrass, Italian” value [1, 13] did it give?
Answer: Its value is 0.

Question: What about the “Plant response rating, Ryegrass, Italian” value [1, 14] of the same compound?
Answer: The value was 20.

Question: And the “Plant response rating, Ryegrass, Italian” value [1, 15]?
Answer: Its value is 0.

Question: What about the “Ryegrass, Italian plant response rating” value [1, 16] of the same compound?
Answer: Its value is 40.

Question: And the “Plant response rating, Kochia” value (kochia (Kochia scoparia); [13])?
Answer: The value was 40.

Question: And the “Plant response rating, Kochia” value (kochia (Kochia scoparia); [14])?
Answer: The value was 100.

Question: And the “Plant response rating, Kochia” value (kochia (Kochia scoparia); [15])?
Answer: Its value is 90.

Question: And the “Kochia plant response rating” value (kochia (Kochia scoparia); [16])?
Answer: The value was 90.

Question: And the “Plant response rating, Ragweed” value [2, 13]?
Answer: The value was 0.

Question: And the “Plant response rating, Ragweed” value [2, 14]?
Answer: Its value is 60.

Question: What about the “Plant response rating, Ragweed” value [2, 15] of the same compound?
Answer: Its value is 20.

Question: What about the “Ragweed plant response rating” value [2, 16] of the same compound?
Answer: Its value is 40.

Question: And the “Plant response rating (scale 0 to 100), Ryegrass, Italian” value ([3]; 16 g ai/ha)?
Answer: Its value is 0.

Question: And the “Ryegrass, Italian plant response rating” value [3, 17]?
Answer: Its value is 0.

Question: What about the “Ryegrass, Italian plant response rating” value [3, 18] of the same compound?
Answer: Its value is 0.

Question: What about the “Plant response rating, Ryegrass, Italian” value [3, 19] of the same compound?
Answer: The value was 5.

Question: What about the “Plant response rating (scale 0 to 100), Barnyardgrass” value ([4]; 16 g ai/ha) of the same compound?
Answer: The value was 5.

Question: What about the “Barnyardgrass plant response rating” value [4, 17] of the same compound?
Answer: The value was 5.

Question: What about the “Plant response rating, Barnyardgrass” value ([4]; 62 g ai/ha) of the same compound?
Answer: The value was 15.

Question: What about the “Plant response rating, Barnyardgrass” value ([4]; 125 g ai/ha) of the same compound?
Answer: Its value is 25.

Question: What about the “Plant response rating (scale 0 to 100), Blackgrass” value ([5]; 16 g ai/ha) of the same compound?
Answer: The value was 0.

Question: What about the “Blackgrass plant response rating” value [5, 17] of the same compound?
Answer: The value was 0.

Question: What about the “Plant response rating, Blackgrass” value ([5]; 62 g ai/ha) of the same compound?
Answer: The value was 0.

Question: And the “Plant response rating, Blackgrass” value ([5]; 125 g ai/ha)?
Answer: The value was 10.

Question: And the “Plant response rating (scale 0 to 100), Corn” value (corn (Zea mays); 16 g ai/ha)?
Answer: The value was 5.

Question: What about the “Corn plant response rating” value (corn (Zea mays); [17]) of the same compound?
Answer: The value was 5.

Question: And the “Plant response rating, Corn” value (corn (Zea mays); 62 g ai/ha)?
Answer: Its value is 10.

Question: And the “Plant response rating, Corn” value (corn (Zea mays); 125 g ai/ha)?
Answer: The value was 15.

Question: What about the “Plant response rating (scale 0 to 100), Foxtail, Giant” value ([6]; 16 g ai/ha) of the same compound?
Answer: Its value is 10.

Question: What about the “Foxtail, Giant plant response rating” value [6, 17] of the same compound?
Answer: Its value is 10.

Question: And the “Plant response rating, Foxtail, Giant” value ([6]; 62 g ai/ha)?
Answer: The value was 15.

Question: What about the “Plant response rating, Foxtail, Giant” value ([6]; 125 g ai/ha) of the same compound?
Answer: The value was 10.

Question: What about the “Plant response rating (scale 0 to 100), Lambsquarters” value ([7]; 16 g ai/ha) of the same compound?
Answer: The value was 40.

Question: And the “Lambsquarters plant response rating” value [7, 17]?
Answer: The value was 80.

Question: And the “Lambsquarters plant response rating” value [7, 18]?
Answer: Its value is 98.

Question: What about the “Plant response rating, Lambsquarters” value [7, 19] of the same compound?
Answer: Its value is 98.

Question: And the “Plant response rating (scale 0 to 100), Crabgrass, Large” value ([8]; 16 g ai/ha)?
Answer: The value was 5.

Question: What about the “Crabgrass, Large plant response rating” value [8, 17] of the same compound?
Answer: The value was 10.

Question: What about the “Plant response rating, Crabgrass, Large” value ([8]; 62 g ai/ha) of the same compound?
Answer: The value was 10.

Question: What about the “Plant response rating, Crabgrass, Large” value ([8]; 125 g ai/ha) of the same compound?
Answer: Its value is 15.

Question: What about the “Plant response rating (scale 0 to 100), Morningglory” value ([9]; 16 g ai/ha) of the same compound?
Answer: The value was 75.

Question: And the “Morningglory plant response rating” value [9, 17]?
Answer: The value was 98.

Question: And the “Morningglory plant response rating” value [9, 18]?
Answer: The value was 75.

Question: And the “Plant response rating, Morningglory” value [9, 19]?
Answer: Its value is 98.

Question: What about the “Plant response rating (scale 0 to 100), Pigweed” value ([10]; 16 g ai/ha) of the same compound?
Answer: The value was 100.

Question: What about the “Pigweed plant response rating” value [10, 17] of the same compound?
Answer: Its value is 100.

Question: What about the “Pigweed plant response rating” value [10, 18] of the same compound?
Answer: Its value is 100.

Question: And the “Plant response rating, Pigweed” value [10, 19]?
Answer: The value was 100.

Question: And the “Plant response rating (scale 0 to 100), Soybean” value (soybean (Glycine max); 16 g ai/ha)?
Answer: Its value is 60.

Question: And the “Soybean plant response rating” value (soybean (Glycine max); [17])?
Answer: Its value is 70.

Question: What about the “Soybean plant response rating” value (soybean (Glycine max); [18]) of the same compound?
Answer: The value was 85.

Question: What about the “Plant response rating, Soybean” value (soybean (Glycine max); [19]) of the same compound?
Answer: Its value is 90.

Question: And the “Plant response rating (scale 0 to 100), Velvetleaf” value ([11]; 16 g ai/ha)?
Answer: Its value is 20.

Question: And the “Velvetleaf plant response rating” value [11, 17]?
Answer: The value was 50.

Question: And the “Velvetleaf plant response rating” value [11, 18]?
Answer: The value was 60.

Question: What about the “Plant response rating, Velvetleaf” value [11, 19] of the same compound?
Answer: Its value is 90.

Question: And the “Plant response rating (scale 0 to 100), Waterhemp” value ([12]; 16 g ai/ha)?
Answer: Its value is 80.

Question: And the “Waterhemp plant response rating” value [12, 17]?
Answer: Its value is 98.

Question: What about the “Waterhemp plant response rating” value [12, 18] of the same compound?
Answer: The value was 100.

Question: And the “Plant response rating, Waterhemp” value [12, 19]?
Answer: The value was 100.
